Several values for one entry are separate records, joined by “and”; a condition that tells them apart may be missing. Identical values can stand only once. Toxic doses and inconclusive results are not listed. Cut-off read from the data, not from the text of the source: active = T/C of 150% or more; inactive = T/C below 125%.
Tested on: L1210 leukemia ip in BDF1 mice, survival T/C
Experiment: NCI In Vivo Anticancer Drug Screen. Data for tumor model L1210 Leukemia (intraperitoneal) in B6D2F1 (BDF1) mice
Details: endpoint: mean survival time, higher = longer survival
Method in brief: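 Value reflects the ratio of survival in compound-treated mice to survival in vehicle-treated controls, with both groups carrying the same transplanted tumor.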

[1] = dose: 100.0 mg/kg/injection, schedule: Q01DX009 (ip), vehicle: saline with Tween-80
[2] = dose: 100.0 mg/kg/injection, schedule: Q04DX003 (ip), vehicle: saline with Tween-80
[3] = dose: 200.0 mg/kg/injection, schedule: Q04DX003 (ip), vehicle: saline with Tween-80
[4] = dose: 400.0 mg/kg/injection, schedule: Q04DX003 (ip), vehicle: saline with Tween-80
[5] = dose: 100.0 mg/kg/injection, schedule: Q01DX009 (ip), vehicle: Klucel (hydroxypropylcellulose) (HPC)
[6] = dose: 100.0 mg/kg/injection, schedule: Q04DX003 (ip), vehicle: Klucel (hydroxypropylcellulose) (HPC)
[7] = dose: 200.0 mg/kg/injection, schedule: Q01DX009 (ip), vehicle: Klucel (hydroxypropylcellulose) (HPC)
[8] = dose: 200.0 mg/kg/injection, schedule: Q04DX003 (ip), vehicle: Klucel (hydroxypropylcellulose) (HPC)
[9] = dose: 400.0 mg/kg/injection, schedule: Q01DX009 (ip), vehicle: Klucel (hydroxypropylcellulose) (HPC)
[10] = dose: 400.0 mg/kg/injection, schedule: Q04DX003 (ip), vehicle: Klucel (hydroxypropylcellulose) (HPC)
[11] = dose: 100.0 mg/kg/injection, schedule: Q01DX001 (ip), vehicle: saline
[12] = dose: 200.0 mg/kg/injection, schedule: Q01DX001 (ip), vehicle: saline
[13] = dose: 400.0 mg/kg/injection, schedule: Q01DX001 (ip), vehicle: saline
[14] = dose: 50.0 mg/kg/injection, schedule: Q01DX001 (ip), vehicle: saline
[15] = dose: 25.0 mg/kg/injection, schedule: Q01DX009 (ip), vehicle: saline
[16] = dose: 50.0 mg/kg/injection, schedule: Q01DX009 (ip), vehicle: saline
[17] = dose: 100.0 mg/kg/injection, schedule: Q04DX003 (ip), vehicle: saline
[18] = dose: 100.0 mg/kg/injection, schedule: Q04DX002 (ip), vehicle: Klucel (hydroxypropylcellulose) (HPC)
[19] = dose: 200.0 mg/kg/injection, schedule: Q04DX002 (ip), vehicle: Klucel (hydroxypropylcellulose) (HPC)
[20] = dose: 400.0 mg/kg/injection, schedule: Q04DX002 (ip), vehicle: Klucel (hydroxypropylcellulose) (HPC)
[21] = dose: 200.0 mg/kg/injection, schedule: Q01DX009 (ip), vehicle: saline with Tween-80

Measured: T/C

CCc1ncc(N2C3CCCC2CC(=O)C3)[nH]1
inactive: dose: 75.0 mg/kg/injection, schedule: Q01DX001 (ip), vehicle: saline 98 % of control | dose: 150.0 mg/kg/injection, schedule: Q01DX001 (ip), vehicle: saline 98 % of control

CCN1CCCC(Nc2nc(C(Cl)(Cl)Cl)nc3cc(Cl)ccc23)C1 (stereo not drawn)
inactive: [1] 104 % of control | [2] 87 % of control | [3] 89 % of control | [4] 88 % of control

CCOC(=O)c1c(O)csc1C
inactive: [5] 93 % of control | [6] 98 % of control | [7] 90 % of control | [8] 101 % of control | [9] 109 % of control | [10] 97 % of control

CC(C)=CC(=O)OC1C2C(CC(C)C3C(O)CC(=O)C13C)OC(=O)C2C (stereo not drawn)
inactive: [11] 107 % of control | [12] 100 % of control | [13] 97 % of control

CCCCCCCCCCCCCC(=O)N(CCCC)CCCC
inactive: dose: 50.0 mg/kg/injection, schedule: Q01DX009 (ip), vehicle: carboxymethylcellulose (CMC) 98 % of control and 90 % of control | dose: 100.0 mg/kg/injection, schedule: Q01DX001 (ip), vehicle: carboxymethylcellulose (CMC) 94 % of control | dose: 100.0 mg/kg/injection, schedule: Q04DX003 (ip), vehicle: carboxymethylcellulose (CMC) 95 % of control | dose: 200.0 mg/kg/injection, schedule: Q01DX001 (ip), vehicle: carboxymethylcellulose (CMC) 93 % of control | dose: 200.0 mg/kg/injection, schedule: Q04DX003 (ip), vehicle: carboxymethylcellulose (CMC) 92 % of control | dose: 400.0 mg/kg/injection, schedule: Q01DX001 (ip), vehicle: carboxymethylcellulose (CMC) 98 % of control | dose: 400.0 mg/kg/injection, schedule: Q01DX009 (ip), vehicle: carboxymethylcellulose (CMC) 95 % of control and 104 % of control | dose: 400.0 mg/kg/injection, schedule: Q04DX003 (ip), vehicle: carboxymethylcellulose (CMC) 96 % of control

O=C([O-])c1ccccc1[I+]c1ccc(C2CCCCC2)cc1
inactive: [14] 100 % of control | [11] 100 % of control | [12] 105 % of control | [13] 103 % of control

CCCC(N=Cc1ccccc1O)C(=O)O.CCCC(N=Cc1ccccc1O)C(=O)O.[Fe] (stereo not drawn)
inactive: [15] 95 % of control | dose: 25.0 mg/kg/injection, schedule: Q04DX003 (ip), vehicle: saline 98 % of control | [16] 93 % of control | dose: 50.0 mg/kg/injection, schedule: Q04DX003 (ip), vehicle: saline 98 % of control | [17] 96 % of control and 98 % of control

O=C(OCC1OC(n2nc3ccnc(Cl)c3n2)C(OC(=O)c2ccccc2)C1OC(=O)c1ccccc1)c1ccccc1 (stereo not drawn)
inactive: dose: 50.0 mg/kg/injection, schedule: Q01DX005 (ip), vehicle: saline 105 % of control | dose: 100.0 mg/kg/injection, schedule: Q01DX005 (ip), vehicle: saline 102 % of control | dose: 200.0 mg/kg/injection, schedule: Q01DX005 (ip), vehicle: saline 110 % of control

Cc1c(Cl)cccc1NC(=O)Oc1ccc(F)cc1Cl
inactive: [5] 94 % of control | [7] 95 % of control

CC(C)(C)NC(=O)NCc1ccccc1Cl
inactive: [18] 96 % of control | [19] 96 % of control | [20] 100 % of control

OC1C(O)C(O)C2(CO2)C(O)C1O (stereo not drawn)
inactive: dose: 600.0 mg/kg/injection, schedule: Q01DX Z (ip), vehicle: saline 112 % of control

CC1OC(=O)C(C)(Br)OC1=O (stereo not drawn)
inactive: dose: 100.0 mg/kg/injection, schedule: Q01DX001 (ip), vehicle: acetone 93 % of control | dose: 200.0 mg/kg/injection, schedule: Q01DX001 (ip), vehicle: acetone 104 % of control

O=C1CC(c2ccccc2)=CN1c1ccc(Cl)cc1
inactive: [18] 89 % of control | [19] 104 % of control | [20] 112 % of control

O=C(NC(Cc1ccc(O)cc1)C(=O)O)SCc1ccccc1 (stereo not drawn)
inactive: dose: 100.0 mg/kg/injection, schedule: Q01DX001 (ip), vehicle: other 100 % of control | dose: 200.0 mg/kg/injection, schedule: Q01DX001 (ip), vehicle: other 102 % of control | dose: 400.0 mg/kg/injection, schedule: Q01DX001 (ip), vehicle: other 102 % of control

Nc1ccc([N+](=O)[O-])cc1C(O)(C(F)(F)F)C(F)(F)F (tested in a mixture with another compound)
inactive: [1] 101 % of control | [2] 101 % of control | [21] 94 % of control | [3] 100 % of control | [4] 97 % of control

c1ccc([Si](c2ccccc2)(c2ccccc2)[Si](c2ccccc2)(c2ccccc2)c2ccccc2)cc1
inactive: dose: 12.5 mg/kg/injection, schedule: Q01DX009 (ip), vehicle: saline 100 % of control | [15] 93 % of control | [16] 93 % of control | [18] 98 % of control | [19] 98 % of control | [20] 87 % of control

Cc1cccc(C)c1NC(=S)N(C)C
inactive: [15] 101 % of control | [16] 103 % of control | [17] 95 % of control

O=C(CCC(C(=O)c1ccccc1)c1ccccc1)c1ccccc1 (stereo not drawn)
inactive: [1] 104 % of control | [21] 87 % of control | dose: 400.0 mg/kg/injection, schedule: Q01DX009 (ip), vehicle: saline with Tween-80 88 % of control

OC(c1ccccc1)c1ccncc1 (stereo not drawn)
inactive: dose: 100.0 mg/kg/injection, schedule: Q01DX001 (ip), vehicle: saline with Tween-80 103 % of control | dose: 200.0 mg/kg/injection, schedule: Q01DX001 (ip), vehicle: saline with Tween-80 97 % of control | dose: 400.0 mg/kg/injection, schedule: Q01DX001 (ip), vehicle: saline with Tween-80 103 % of control

COc1cc2ccc3c(c2cc1OC)C=[N+](C)CC3
inactive: dose: 100.0 mg/kg/injection, schedule: Q01DX009 (ip), vehicle: saline sonified 120 % of control | dose: 100.0 mg/kg/injection, schedule: Q04DX003 (ip), vehicle: saline sonified 98 % of control | dose: 200.0 mg/kg/injection, schedule: Q01DX009 (ip), vehicle: saline sonified 114 % of control | dose: 200.0 mg/kg/injection, schedule: Q04DX003 (ip), vehicle: saline sonified 93 % of control | dose: 400.0 mg/kg/injection, schedule: Q04DX003 (ip), vehicle: saline sonified 102 % of control

NC(=O)c1ccccc1NC(=O)COc1ccc(Cl)cc1
inactive: [5] 95 % of control | [6] 97 % of control | [7] 92 % of control | [8] 98 % of control | [9] 97 % of control | [10] 106 % of control

CN(C)c1ccc(/C=C\C(=O)c2ccccc2)cc1
inactive: [14] 96 % of control | [16] 94 % of control | [11] 102 % of control | [5] 95 % of control | dose: 100.0 mg/kg/injection, schedule: Q01DX009 (ip), vehicle: saline 102 % of control | [6] 94 % of control | [12] 111 % of control | [7] 95 % of control | dose: 200.0 mg/kg/injection, schedule: Q01DX009 (ip), vehicle: saline 97 % of control | [8] 93 % of control | [13] 94 % of control | [9] 97 % of control | [10] 94 % of control

Source: PubChem BioAssay AID248 (DTP/NCI, 2004)
